# Values quoted from earlier work as cited in PMC5263201, “GABAA receptor occupancy by subtype selective GABAAα2,3 modulators: PET studies in humans” (Psychopharmacology, 2016).
# Where two headings read alike, the source gives them in different places.
# How the values were obtained:
# [1] = target: BZ binding site, hippocampus synaptosomal membranes; parameters: method as in Dubinsky et al 2002; conditions: (e) rat brain synaptosomal membranes; [3H]Ro15-4513; ref Dubinsky et al 2002; read-out: Affinity in vitro at BZ binding site (Ki), hippocampus; cited from earlier work
# GABAA receptor [2] = conditions: cited from earlier work; for Receptor occupancy: ref Atack et al 2010a
# GABAA receptor α5 = target: GABAA receptor α5; parameters: method as in Sieghart 1995; conditions: (d) review; ref Sieghart 1995; read-out: Affinity in vitro at BZ binding site (Ki) α5; cited from earlier work
# GABAA receptor α2 = target: GABAA receptor α2; parameters: method as in Sieghart 1995; conditions: (d) review; ref Sieghart 1995; read-out: Affinity in vitro at BZ binding site (Ki) α2; cited from earlier work
# GABAA receptor α3 = target: GABAA receptor α3; parameters: method as in Sieghart 1995; conditions: (d) review; ref Sieghart 1995; read-out: Affinity in vitro at BZ binding site (Ki) α3; cited from earlier work
# [3] = target: GABAA α1, α2, α3, and α5 subunits; parameters: method as in Sieghart 1995; conditions: ref Sieghart 1995; read-out: K i for the GABAA α1, α2, α3, and α5 subunits; cited from earlier work
# GABAA α4 and α6 subunits = target: GABAA α4 and α6 subunits; parameters: method as in Sieghart 1995; conditions: ref Sieghart 1995; read-out: K i for the α4 and α6 subunits; cited from earlier work
# [4] = target: human recombinant GABAA receptors containing β3, γ2 plus α1; parameters: method as in Atack et al 2010a; conditions: L(tk-) cells, human recombinant β3γ2 plus α1; mean (SEM); ref Atack et al 2010a; read-out: Affinity in vitro at BZ binding site (Ki) α1; cited from earlier work
# [5] = target: human recombinant GABAA receptors containing β3, γ2 plus α5; parameters: method as in Atack et al 2010a; conditions: L(tk-) cells, human recombinant β3γ2 plus α5; mean (SEM); ref Atack et al 2010a; read-out: Affinity in vitro at BZ binding site (Ki) α5; cited from earlier work
# GABAA α1β2γ2 = system: GABAA α1β2γ2; parameters: method as in Christian et al 2015; conditions: 1µM test concentration, GABA EC10, % of 1 µM diazepam, mean ±SE, ref Christian et al 2015; cited from earlier work
# [6] = system: human recombinant GABAA receptors containing β3γ2 plus α1; parameters: method as in Atack et al 2010; conditions: ref Atack et al 2010, cited from earlier work; for Relative efficacy (%CDP) α1: maximum potentiation of GABA EC20 currents relative to chlordiazepoxide
# [7] = target: human recombinant GABAA receptors containing β3, γ2 plus α2; parameters: method as in Atack et al 2010a; conditions: L(tk-) cells, human recombinant β3γ2 plus α2; mean (SEM); ref Atack et al 2010a; read-out: Affinity in vitro at BZ binding site (Ki) α2; cited from earlier work
# [8] = system: human recombinant GABAA receptors containing β3γ2 plus α2; parameters: method as in Atack et al 2010; conditions: maximum potentiation of GABA EC20 currents relative to chlordiazepoxide; ref Atack et al 2010; cited from earlier work
# GABAA α3β3γ2 = system: GABAA α3β3γ2; parameters: method as in Christian et al 2015; conditions: 1µM test concentration, GABA EC10, % of 1 µM diazepam, mean ±SE, ref Christian et al 2015; cited from earlier work
# GABAA α2β3γ2 = system: GABAA α2β3γ2; parameters: method as in Christian et al 2015; conditions: 1µM test concentration, GABA EC10, % of 1 µM diazepam, mean ±SE, ref Christian et al 2015; cited from earlier work
# [9] = system: human recombinant GABAA receptors containing β3γ2 plus α5; parameters: method as in Atack et al 2010; conditions: maximum potentiation of GABA EC20 currents relative to chlordiazepoxide; ref Atack et al 2010; cited from earlier work
# GABAA α5β3γ2 = system: GABAA α5β3γ2; parameters: method as in Christian et al 2015; conditions: 1µM test concentration, GABA EC10, % of 1 µM diazepam, mean ±SE, ref Christian et al 2015; cited from earlier work
# [10] = ref Atack et al 2010a; cited from earlier work
# [11] = system: human recombinant GABAA receptors containing β3γ2 plus α3; parameters: method as in Atack et al 2010; conditions: maximum potentiation of GABA EC20 currents relative to chlordiazepoxide; ref Atack et al 2010; cited from earlier work
# [12] = target: human recombinant GABAA receptors containing β3, γ2 plus α3; parameters: method as in Atack et al 2010a; conditions: L(tk-) cells, human recombinant β3γ2 plus α3; mean (SEM); ref Atack et al 2010a; read-out: Affinity in vitro at BZ binding site (Ki) α3; cited from earlier work
# GABAA receptor α1 = target: GABAA receptor α1; parameters: method as in Sieghart 1995; conditions: (d) review; ref Sieghart 1995; read-out: Affinity in vitro at BZ binding site (Ki) α1; cited from earlier work
# [13] = system: human α1β2γ2 GABAA receptors; parameters: method as in Sanna et al 2002; conditions: GABA-evoked Cl- currents, means ±SE, ref Sanna et al 2002; cited from earlier work
# [14] = system: human α2β2γ2 GABAA receptors; parameters: method as in Sanna et al 2002; conditions: GABA-evoked Cl- currents, means ±SE, ref Sanna et al 2002; cited from earlier work
# [15] = system: human α5β2γ2 GABAA receptors; parameters: method as in Sanna et al 2002; conditions: GABA-evoked Cl- currents, means ±SE, ref Sanna et al 2002; cited from earlier work
# [16] = system: human α3β2γ2 GABAA receptors; parameters: method as in Sanna et al 2002; conditions: GABA-evoked Cl- currents, means ±SE, ref Sanna et al 2002; cited from earlier work
# GABAA receptor [17] = system: GABAA receptor; parameters: method as in Bottlaender et al 1994; conditions: In NHP; corresponds to 4-500 µg/kg; ref Bottlaender et al 1994; cited from earlier work
# [18] = target: human recombinant GABAA receptors containing β3, γ2 plus α2; parameters: method as in Atack et al 1999; conditions: (c) human recombinant β3γ2 plus α2; [3H]Ro 15-1788; ref Atack et al 1999; read-out: Affinity in vitro at BZ binding site (Ki) α2; cited from earlier work
# [19] = target: human recombinant GABAA receptors containing β3, γ2 plus α3; parameters: method as in Atack et al 1999; conditions: (c) human recombinant β3γ2 plus α3; [3H]Ro 15-1788; ref Atack et al 1999; read-out: Affinity in vitro at BZ binding site (Ki) α3; cited from earlier work
# [20] = target: human recombinant GABAA receptors containing β3, γ2 plus α5; parameters: method as in Atack et al 1999; conditions: (c) human recombinant β3γ2 plus α5; [3H]Ro 15-1788; ref Atack et al 1999; read-out: Affinity in vitro at BZ binding site (Ki) α5; cited from earlier work
# [21] = target: human recombinant GABAA receptors containing β3, γ2 plus α1; parameters: method as in Atack et al 1999; conditions: (c) human recombinant β3γ2 plus α1; [3H]Ro 15-1788; ref Atack et al 1999; read-out: Affinity in vitro at BZ binding site (Ki) α1; cited from earlier work
Molecule,Ki [1],Ki (GABAA receptor α2),Ki (GABAA receptor α3),Ki [4],Ki [5],Relative efficacy (%CDP) α1 [6],Ki [7],Relative efficacy (%CDP) α2 [8],Relative efficacy (%CDP) α5 [9],maximum tolerated dose (MTD) [10],Relative efficacy (%CDP) α3 [11],Ki [12],further results
Cc1nnc2n1-c1ccc(Cl)cc1C(c1ccccc1)=NC2 [Alprazolam],5 nM,–,–,–,–,–,–,–,–,–,–,–,"Receptor occupancy (RO) (GABAA receptor [2]; 2mg/day, sedation, ref Fujita et al 1999): RO:16% (2mg/day, sedation) /Fujita et al 1999 Affinity: Dubinsky et al 2002"
CN1C(=O)CN=C(c2ccccc2)c2cc(Cl)ccc21 [Diazepam],12.6 nM,16.9 nM,17 nM,–,–,–,–,–,–,–,–,–,"Ki (GABAA receptor α5): 14.9 nM; Receptor occupancy (RO) (GABAA receptor [2]; at 30mg, sedation, ref Pauli et al 1992): RO:24%, at 30mg, sedation/ Pauli et al 1992 Affinity: c) Atack et al 1999, d) Sieghart 1995;"
CCOC(=O)c1ncn2c1CN(C)C(=O)c1cc(F)ccc1-2 [Flumazenil],–,–,–,–,–,–,–,–,–,–,–,–,Ki [3]: ~1 nM; Ki (GABAA α4 and α6 subunits): ~150 nM
O=C1Nc2ccc(Cl)cc2C(c2ccccc2Cl)=NC1O (centres unmarked) [Lorazepam],8.6 nM,–,–,–,–,–,–,–,–,–,–,–,"Receptor occupancy (RO) (GABAA receptor [2]; 2 mg, ref Lindfors-Hughes et al 2005, Atack et al 2010b): RO: ≤10% (2 mg) / Lindfors-Hughes et al 2005, Atack et al 2010b Affinity: Dubinsky et al 2002"
"CCn1ncnc1COc1nn2c(-c3ccccc3F)nnc2cc1C(C)(C)C [TPA-023, 7-(1,1-dimethylethyl)-6-(2-ethyl-2H-1,2,4-triazol-3-ylmethoxy)-3-(2-fluorophenyl)-1,2,4-triazolo[4,3-b]pyridazine]",–,–,–,0.27 nM,0.41 nM,0%,0.31 nM,11%,5%,2 mg,21%,0.19 nM,"Relative efficacy (%DZ) α1 (GABAA α1β2γ2): 5±3%; comment on intrinsic activity at α1 [6]: Christian et al 2015 Atack et al 2010 /antagonist at α1; Relative efficacy (%DZ) α3 (GABAA α3β3γ2): 17±1%; Receptor occupancy (GABAA receptor [2]; at 2mg, MTD): 35-65%; receptor occupancy with lack of overt sedation (GABAA receptor [2]; ref Atack et al. 2010, 2011a,b): up to 50%; Relative efficacy (%DZ) α2 (GABAA α2β3γ2): 15±2%; Relative efficacy (%DZ) α5 (GABAA α5β3γ2): 6±4%"
CC(C)(O)c1cnn2c(-c3ccc(F)c(-c4c(F)cccc4C#N)c3)cnc2n1 [TPA-023B],–,–,–,0.73 ± 0.21 nM,1.1 ± 0.2 nM,3±1%,2 ± 0.4 nM,38±4%,37±4%,2 mg,50±2%,1.8 ± 0.4 nM,Receptor occupancy (GABAA receptor [2]; at 1.5 mg): 53%
Cc1nnc2n1-c1ccc(Cl)cc1C(c1ccccc1Cl)=NC2 [Triazolam],–,1.2 ± 0.2 nM,3 ± 0.7 nM,–,–,–,–,–,–,–,–,–,"Ki (GABAA receptor α1): 1.8 ± 0.4 nM; Relative efficacy (%) α1, maximal percentage potentiation [13]: 132±6%; Relative efficacy (%) α2, maximal percentage potentiation [14]: 255±11%; Relative efficacy (%) α5, maximal percentage potentiation [15]: 165±8%; Ki (GABAA receptor α5): 1.2 ± 0.3 nM; Relative efficacy (%) α3, maximal percentage potentiation [16]: 270±13%; Receptor occupancy (RO) (GABAA receptor [17]): In NHP: 5-100% RO corresponds to 4-500 µg/kg/ Bottlaender et al 1994 Affinity: Sieghart 1995"
Cc1ccc(-c2nc3ccc(C)cn3c2CC(=O)N(C)C)cc1 [Zolpidem],–,291 nM,357 nM,–,–,–,–,–,–,–,–,–,"Ki (GABAA receptor α1): 17 nM; Ki [18]: 160 nM; Relative efficacy (%) α1, maximal percentage potentiation [13]: 100±5%; Relative efficacy (%) α2, maximal percentage potentiation [14]: 198±20%; Ki [19]: 380 nM; Relative efficacy (%) α5, maximal percentage potentiation [15]: 15±5%; Ki [20]: > 10 µM; Relative efficacy (%) α3, maximal percentage potentiation [16]: 217±34%; Receptor occupancy (RO) (GABAA receptor [2]; 20mg, drowsiness, ref Abadie et al 1996): 21%; Receptor occupancy (RO) (GABAA receptor [2]; at 10mg therapeutic dose, ref Abadie et al 1996): 15%; Ki [21]: 27 nM"
MRK-409,–,–,–,0.22 ± 0.02 nM,0.23 ± 0.04 nM,18%,0.4 ± 0.07 nM,23%,18%,1 mg,45%,0.21 ± 0.03 nM,"comment on intrinsic activity at α1 [6]: Atack et al 2010/weak partial agonist at α1; Receptor occupancy (GABAA receptor [2]; at 1mg, MTD): < 10%; receptor occupancy at severe sedation (GABAA receptor [2]; ref Atack et al. 2010, 2011a,b): < 10%"
